Laboratory results reported in ChEMBL document CHEMBL1201862, “PubChem BioAssay data set” (2004).
Calls of active or inactive are those of the source.

Experiments:
[1] = Luminescence Cell-Based Dose Response to Identify Activators of Luciferase Translation or Activity in H4-C Neuroglioblastoma Cells. [Related pubchem assays: 1829 (Project Summary), 1814 (Primary HTS)]; assay type: functional
[2] = molecular target: Glycogen synthase kinase-3 alpha (Homo sapiens, UniProt P49840); experiment: Inhibition of Human GSK-3 alpha Activity Measured in Biochemical System Using Microfluidics - 2063-06_Inhibitor_Dose_DryPowder_Activity_Set2. [Related pubchem assays (depositor defined):AID2709]
[3] = Luminescence Cell-Based Dose Confirmation to Identify Activators of 5'UTR Stem-Loop Driven Alpha-Synuclein mRNA Translation in H4 Neuroglioblastoma Cells. [Related pubchem assays: 1829 (Project Summary), 1814 (Primary HTS)]; assay type: functional
[4] = Luminescence Cell-Based Dose Response HTS to Identify Activators of Luciferase Translation or Activity in H4 […] Cells. [Related pubchem assays: 1829 (Project Summary), 1814 (Primary HTS)]; assay type: functional
[5] = Luminescence Cell-Based Dose Response to Identify Activators of 5'UTR Stem-Loop Driven Prion Protein mRNA Translation in H4-C Neuroglioblastoma Cells. [Related pubchem assays: 1829 (Project Summary), 1814 (Primary HTS)]; assay type: functional
[6] = molecular target: Glycogen synthase kinase-3 beta (Homo sapiens, UniProt P49841); experiment: Inhibition of Human GSK-3 beta Activity Measured in Biochemical System Using Microfluidics - 2063-05_Inhibitor_Dose_DryPowder_Activity_Set2. [Related pubchem assays (depositor defined):AID2709]
Sequence of Glycogen synthase kinase-3 beta (P49841 whole entry): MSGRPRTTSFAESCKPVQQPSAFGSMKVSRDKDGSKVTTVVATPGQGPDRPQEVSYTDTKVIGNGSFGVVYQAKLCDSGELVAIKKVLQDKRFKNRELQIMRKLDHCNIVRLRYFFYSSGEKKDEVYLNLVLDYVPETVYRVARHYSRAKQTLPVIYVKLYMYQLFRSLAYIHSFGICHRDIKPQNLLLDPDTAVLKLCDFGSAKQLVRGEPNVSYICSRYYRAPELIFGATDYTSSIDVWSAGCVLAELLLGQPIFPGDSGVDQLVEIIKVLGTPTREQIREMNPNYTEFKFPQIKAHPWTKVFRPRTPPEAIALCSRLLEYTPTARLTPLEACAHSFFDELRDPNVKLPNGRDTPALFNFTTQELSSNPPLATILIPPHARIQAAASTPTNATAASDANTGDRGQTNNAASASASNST

[7] = Luminescence Cell-Based Dose Confirmation HTS to Identify Activators of 5'UTR Stem-Loop Driven Alpha-Synuclein mRNA Translation in H4 Neuroglioblastoma Cells. [Related pubchem assays: 1829 (Project Summary), 1814 (Primary HTS)]; assay type: functional
[8] = molecular target: Cyclin-dependent kinase 5/CDK5 activator 1 (Homo sapiens, UniProt Q00535); experiment: CDK5-p25 kinase inhibitors, specificity check, dose response, selectivity assay for GSK-3 alpha inhibitor project, biochemical, microfluidic mobility shift, dry powder (AID 588430)
Sequence of Cyclin-dependent kinase 5/CDK5 activator 1 (Q00535 whole entry): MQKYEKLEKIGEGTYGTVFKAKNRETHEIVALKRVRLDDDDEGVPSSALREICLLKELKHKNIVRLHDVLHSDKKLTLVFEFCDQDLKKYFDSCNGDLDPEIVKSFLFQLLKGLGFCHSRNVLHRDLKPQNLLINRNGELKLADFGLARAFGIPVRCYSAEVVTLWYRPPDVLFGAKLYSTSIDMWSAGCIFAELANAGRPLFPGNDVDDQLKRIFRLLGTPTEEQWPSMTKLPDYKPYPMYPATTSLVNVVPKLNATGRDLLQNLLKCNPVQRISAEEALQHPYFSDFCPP
Sequence of Cyclin-dependent kinase 5/CDK5 activator 1 (Q15078 whole entry, further chain): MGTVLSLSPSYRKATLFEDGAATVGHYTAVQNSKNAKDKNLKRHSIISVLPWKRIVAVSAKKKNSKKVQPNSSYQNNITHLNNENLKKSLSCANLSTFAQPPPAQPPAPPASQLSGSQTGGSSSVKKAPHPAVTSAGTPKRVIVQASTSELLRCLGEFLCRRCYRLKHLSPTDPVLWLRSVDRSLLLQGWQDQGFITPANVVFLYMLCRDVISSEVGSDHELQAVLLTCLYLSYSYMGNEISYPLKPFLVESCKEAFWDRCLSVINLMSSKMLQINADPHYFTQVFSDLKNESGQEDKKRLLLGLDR

[9] = tested on: H4; experiment: Luminescence Cell-Based Dose Response HTS to Identify Activators of 5'UTR Stem-Loop Driven Prion Protein mRNA Translation in H4 Neuroglioblastoma Cells. [Related pubchem assays: 1829 (Project Summary), 1814 (Primary HTS)]; assay type: functional; conditions: Homo sapiens
[10] = tested on: HEK293; experiment: HEK cell cytotoxicity by LDH release, dose response, cytotoxicity control for IDE activator project, fluorescence, HEK cells (AID 588440); assay type: functional, cell-based; conditions: Homo sapiens;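 note: cytotoxicity by LDH release measuring loss of membrane integrity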
[11] = molecular target: T1, Insulin-degrading enzyme (Homo sapiens, UniProt P14735); experiment: activators of endogenous IDE in HEK cells, dose response, cell-based, fluorescence polarization (AID 588439); assay type: functional
T1 sequence (P14735 whole entry): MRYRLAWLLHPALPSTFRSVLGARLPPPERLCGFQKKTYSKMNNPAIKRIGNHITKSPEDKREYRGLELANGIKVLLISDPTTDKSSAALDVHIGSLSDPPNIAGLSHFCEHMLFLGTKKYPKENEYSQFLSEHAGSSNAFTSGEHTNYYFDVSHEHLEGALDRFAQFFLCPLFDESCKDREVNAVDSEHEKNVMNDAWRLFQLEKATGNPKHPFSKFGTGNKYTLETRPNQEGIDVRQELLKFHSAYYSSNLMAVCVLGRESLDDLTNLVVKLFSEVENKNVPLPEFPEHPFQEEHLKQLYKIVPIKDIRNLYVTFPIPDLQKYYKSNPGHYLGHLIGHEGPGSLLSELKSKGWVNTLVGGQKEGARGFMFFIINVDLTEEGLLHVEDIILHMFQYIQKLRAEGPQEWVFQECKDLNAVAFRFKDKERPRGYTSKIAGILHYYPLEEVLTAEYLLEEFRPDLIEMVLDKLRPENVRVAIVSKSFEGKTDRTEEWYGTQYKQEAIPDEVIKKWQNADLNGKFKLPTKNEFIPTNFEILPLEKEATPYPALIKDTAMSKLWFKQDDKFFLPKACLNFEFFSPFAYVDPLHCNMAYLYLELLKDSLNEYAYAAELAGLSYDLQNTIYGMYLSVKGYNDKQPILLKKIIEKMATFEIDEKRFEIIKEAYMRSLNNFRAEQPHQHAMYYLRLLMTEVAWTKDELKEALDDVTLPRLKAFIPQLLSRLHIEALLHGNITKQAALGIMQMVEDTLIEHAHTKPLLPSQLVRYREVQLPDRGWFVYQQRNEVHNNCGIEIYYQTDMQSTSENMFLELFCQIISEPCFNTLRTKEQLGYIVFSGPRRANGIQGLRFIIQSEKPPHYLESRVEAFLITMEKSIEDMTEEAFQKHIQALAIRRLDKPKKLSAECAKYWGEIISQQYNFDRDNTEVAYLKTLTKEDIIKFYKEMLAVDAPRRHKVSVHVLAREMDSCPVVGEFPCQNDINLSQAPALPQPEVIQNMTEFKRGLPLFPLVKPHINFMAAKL

[12] = tested on: HEK293; experiment: optical interference in Abeta FP readout, dose response, artefact control for IDE activator project, biochemical, fluorescence polarization (AID 588442); assay type: functional, cell-based; conditions: Homo sapiens
[13] = molecular target: T1, Insulin-degrading enzyme; experiment: activators of recombinant IDE enzyme, dose response, counter-screen for IDE activator project, biochemical, fluorescence polarization (AID 588681)
[14] = molecular target: Cytochrome P450 2C9 (Homo sapiens, UniProt P11712)
[15] = molecular target: Cytochrome P450 2C19 (Homo sapiens, UniProt P33261); experiment: Cytochrome panel assay with activity outcomes. Panel member name: p450-cyp2c19 Compounds with AC50 equal or less than 10 uM are considered active; assay type: functional; conditions: read-out: AC50
[16] = molecular target: DNA dC->dU-editing enzyme APOBEC-3G (Homo sapiens, UniProt Q9HC16); experiment: APOBEC3G deaminase inhibitors, SAR follow-up, biochemical, fluorescence, single-stranded DNA substrate (AID 602136); assay type: functional; conditions: read-out: IC50_Mean
Sequence of DNA dC->dU-editing enzyme APOBEC-3G (Q9HC16 whole entry): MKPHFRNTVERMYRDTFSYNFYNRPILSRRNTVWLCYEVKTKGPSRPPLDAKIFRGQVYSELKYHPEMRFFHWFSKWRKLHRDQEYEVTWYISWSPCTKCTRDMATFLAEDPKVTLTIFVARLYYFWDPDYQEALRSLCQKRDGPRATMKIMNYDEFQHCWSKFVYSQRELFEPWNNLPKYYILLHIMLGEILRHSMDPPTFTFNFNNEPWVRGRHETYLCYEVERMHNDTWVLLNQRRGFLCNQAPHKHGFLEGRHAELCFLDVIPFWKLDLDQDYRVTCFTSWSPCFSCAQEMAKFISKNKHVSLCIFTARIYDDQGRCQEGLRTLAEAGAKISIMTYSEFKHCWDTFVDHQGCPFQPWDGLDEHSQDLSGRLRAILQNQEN

[17] = molecular target: DNA dC->dU-editing enzyme APOBEC-3A (Homo sapiens, UniProt P31941); experiment: SAR analysis of small molecule inhibitors of APOBEC3A DNA Deaminase via a fluorescence-based single-stranded DNA deaminase assay.; assay type: functional; conditions: read-out: IC50_Mean
Sequence of DNA dC->dU-editing enzyme APOBEC-3A (P31941 whole entry): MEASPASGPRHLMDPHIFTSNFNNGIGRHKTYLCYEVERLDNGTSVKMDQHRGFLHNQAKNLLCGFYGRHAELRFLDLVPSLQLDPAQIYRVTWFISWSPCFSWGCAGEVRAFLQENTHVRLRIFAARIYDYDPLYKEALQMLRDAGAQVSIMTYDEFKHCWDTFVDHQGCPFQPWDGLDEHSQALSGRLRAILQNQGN

[18] = molecular target: Sphingosine 1-phosphate receptor 4 (Homo sapiens, UniProt O95977); experiment: Late-stage fluorescence-based dose-response cell-based counterscreen assay to identify agonists of the Sphingosine 1-Phosphate Receptor 3 (S1P3): Sphingosine 1-Phosphate Receptor 4 (S1P4) agonist assay.; assay type: functional
Sequence of Sphingosine 1-phosphate receptor 4 (O95977 whole entry): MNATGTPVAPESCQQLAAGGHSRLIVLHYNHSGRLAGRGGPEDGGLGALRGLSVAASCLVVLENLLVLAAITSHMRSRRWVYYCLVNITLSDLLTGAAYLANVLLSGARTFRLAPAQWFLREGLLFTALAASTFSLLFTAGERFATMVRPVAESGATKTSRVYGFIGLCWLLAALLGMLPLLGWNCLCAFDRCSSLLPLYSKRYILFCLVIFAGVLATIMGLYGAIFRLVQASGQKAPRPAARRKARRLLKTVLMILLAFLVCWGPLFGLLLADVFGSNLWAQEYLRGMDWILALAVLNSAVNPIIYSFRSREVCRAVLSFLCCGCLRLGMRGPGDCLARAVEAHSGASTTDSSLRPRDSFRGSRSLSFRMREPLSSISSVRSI

[19] = molecular target: Sphingosine 1-phosphate receptor 2 (Homo sapiens, UniProt O95136); experiment: Late-stage fluorescence-based dose-response cell-based counterscreen assay to identify agonists of the Sphingosine 1-Phosphate Receptor 3 (S1P3): Sphingosine 1-Phosphate Receptor 2 (S1P2) agonist assay.; assay type: functional
Sequence of Sphingosine 1-phosphate receptor 2 (O95136 whole entry): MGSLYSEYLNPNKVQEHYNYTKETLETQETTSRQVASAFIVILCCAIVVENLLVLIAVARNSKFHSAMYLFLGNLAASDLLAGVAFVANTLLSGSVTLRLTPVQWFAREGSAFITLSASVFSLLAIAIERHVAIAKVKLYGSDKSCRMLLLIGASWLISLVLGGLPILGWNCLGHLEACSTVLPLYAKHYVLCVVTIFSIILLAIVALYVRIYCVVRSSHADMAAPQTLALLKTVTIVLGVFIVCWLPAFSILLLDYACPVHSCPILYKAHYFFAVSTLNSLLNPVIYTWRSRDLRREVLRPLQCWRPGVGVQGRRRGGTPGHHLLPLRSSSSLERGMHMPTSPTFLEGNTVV

[20] = molecular target: BDNF/NT-3 growth factors receptor (Homo sapiens, UniProt Q16620); assay type: functional;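 note: NTRK2 measured as one member of a broad kinome-wide kinase profiling panel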
[21] = molecular target: Tyrosine-protein kinase Fyn (Homo sapiens, UniProt P06241); assay type: functional
Sequence of Tyrosine-protein kinase Fyn (P06241 whole entry): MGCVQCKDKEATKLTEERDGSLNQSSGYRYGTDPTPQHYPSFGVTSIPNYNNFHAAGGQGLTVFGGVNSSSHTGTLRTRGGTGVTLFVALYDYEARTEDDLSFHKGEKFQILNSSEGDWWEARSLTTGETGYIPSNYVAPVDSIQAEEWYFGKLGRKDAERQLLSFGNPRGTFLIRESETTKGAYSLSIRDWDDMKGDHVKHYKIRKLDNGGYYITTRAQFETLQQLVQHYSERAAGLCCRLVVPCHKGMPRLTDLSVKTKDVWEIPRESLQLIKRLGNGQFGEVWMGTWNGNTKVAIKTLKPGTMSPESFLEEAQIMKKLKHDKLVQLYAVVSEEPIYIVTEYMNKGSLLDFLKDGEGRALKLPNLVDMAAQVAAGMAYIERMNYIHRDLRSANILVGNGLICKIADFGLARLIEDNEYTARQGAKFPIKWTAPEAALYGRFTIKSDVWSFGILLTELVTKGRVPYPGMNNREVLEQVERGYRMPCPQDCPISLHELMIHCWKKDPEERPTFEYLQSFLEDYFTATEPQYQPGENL

[22] = molecular target: Cyclin-dependent kinase 8 (Homo sapiens, UniProt P49336); experiment: Navigating the Kinome. Panel member name: CDK8; assay type: functional
[23] = molecular target: Tyrosine-protein kinase Lck (Homo sapiens, UniProt P06239); assay type: functional;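 note: lck was assayed as one member of a kinase panel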
Sequence of Tyrosine-protein kinase Lck (P06239 whole entry): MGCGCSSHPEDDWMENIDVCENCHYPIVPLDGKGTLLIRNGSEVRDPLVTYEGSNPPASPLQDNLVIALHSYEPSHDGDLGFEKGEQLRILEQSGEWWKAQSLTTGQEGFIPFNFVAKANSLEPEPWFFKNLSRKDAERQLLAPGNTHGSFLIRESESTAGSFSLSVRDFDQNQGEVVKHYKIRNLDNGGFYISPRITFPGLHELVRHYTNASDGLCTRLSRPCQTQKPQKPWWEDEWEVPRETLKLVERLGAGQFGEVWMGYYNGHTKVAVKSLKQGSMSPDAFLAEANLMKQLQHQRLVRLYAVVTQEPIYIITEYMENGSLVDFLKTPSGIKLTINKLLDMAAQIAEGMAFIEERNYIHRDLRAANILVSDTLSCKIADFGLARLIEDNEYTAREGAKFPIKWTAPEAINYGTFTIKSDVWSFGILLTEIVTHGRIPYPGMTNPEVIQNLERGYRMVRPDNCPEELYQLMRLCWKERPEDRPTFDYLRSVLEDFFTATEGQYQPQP

[24] = molecular target: Dual specificity protein kinase CLK4 (Homo sapiens, UniProt Q9HAZ1); assay type: functional
[25] = molecular target: Hepatocyte growth factor receptor (Homo sapiens, UniProt P08581); assay type: functional;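 note: kinase panel profiling across the kinome, with MET as the panel member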
[26] = molecular target: Serine/threonine-protein kinase TAO1 (Homo sapiens, UniProt Q7L7X3); assay type: functional
[27] = molecular target: Rho-associated protein kinase 1 (Homo sapiens, UniProt Q13464); assay type: functional;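 note: measured within a broad kinome-wide panel profiling many kinases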
Sequence of Rho-associated protein kinase 1 (Q13464 whole entry): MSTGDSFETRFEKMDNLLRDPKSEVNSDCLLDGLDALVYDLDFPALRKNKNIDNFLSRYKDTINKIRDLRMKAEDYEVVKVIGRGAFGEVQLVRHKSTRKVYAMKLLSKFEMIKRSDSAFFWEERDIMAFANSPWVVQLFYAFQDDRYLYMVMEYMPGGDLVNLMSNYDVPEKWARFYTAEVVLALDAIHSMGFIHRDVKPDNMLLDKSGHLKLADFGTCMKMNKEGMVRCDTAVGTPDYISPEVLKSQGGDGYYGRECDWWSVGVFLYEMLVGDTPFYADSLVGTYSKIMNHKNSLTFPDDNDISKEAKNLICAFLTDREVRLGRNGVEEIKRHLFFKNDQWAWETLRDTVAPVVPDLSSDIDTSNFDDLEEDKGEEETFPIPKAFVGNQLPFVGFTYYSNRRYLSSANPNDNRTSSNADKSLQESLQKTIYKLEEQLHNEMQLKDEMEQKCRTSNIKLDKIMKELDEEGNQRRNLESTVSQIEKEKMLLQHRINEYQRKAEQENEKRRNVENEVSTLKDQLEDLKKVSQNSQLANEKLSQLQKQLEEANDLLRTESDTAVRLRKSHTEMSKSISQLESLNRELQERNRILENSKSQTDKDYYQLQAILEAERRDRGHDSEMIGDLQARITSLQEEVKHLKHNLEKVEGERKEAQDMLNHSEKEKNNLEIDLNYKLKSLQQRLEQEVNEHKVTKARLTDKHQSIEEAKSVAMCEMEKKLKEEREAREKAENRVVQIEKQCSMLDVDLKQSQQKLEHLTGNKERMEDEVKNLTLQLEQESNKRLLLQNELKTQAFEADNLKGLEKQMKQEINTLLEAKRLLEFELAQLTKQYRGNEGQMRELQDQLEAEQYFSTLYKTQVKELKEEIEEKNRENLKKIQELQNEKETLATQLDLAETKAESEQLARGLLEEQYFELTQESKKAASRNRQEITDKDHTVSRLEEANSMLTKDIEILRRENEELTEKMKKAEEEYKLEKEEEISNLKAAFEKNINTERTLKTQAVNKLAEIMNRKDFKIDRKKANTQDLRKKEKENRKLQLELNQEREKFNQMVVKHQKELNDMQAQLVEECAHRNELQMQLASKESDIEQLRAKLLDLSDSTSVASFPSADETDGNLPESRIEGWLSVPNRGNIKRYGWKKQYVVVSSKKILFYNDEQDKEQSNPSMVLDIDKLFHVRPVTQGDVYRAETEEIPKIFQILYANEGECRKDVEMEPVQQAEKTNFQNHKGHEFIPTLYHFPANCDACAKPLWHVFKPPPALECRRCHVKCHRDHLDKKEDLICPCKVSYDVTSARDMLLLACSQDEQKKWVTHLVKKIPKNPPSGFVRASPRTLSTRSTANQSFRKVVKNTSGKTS

[28] = molecular target: Aurora kinase B (Homo sapiens, UniProt Q96GD4); assay type: functional
[29] = molecular target: High affinity nerve growth factor receptor (Homo sapiens, UniProt P04629); assay type: functional;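 note: NTRK1 tested as one member of a kinome-wide profiling panel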
[30] = molecular target: Calcium/calmodulin-dependent protein kinase type II subunit alpha (Homo sapiens, UniProt Q9UQM7); experiment: Navigating the Kinome. Panel member name: CAMK2A; assay type: functional
[31] = molecular target: ALK tyrosine kinase receptor (Homo sapiens, UniProt Q9UM73); assay type: functional;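 note: ALK tested as one member of a kinase panel screen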
[32] = molecular target: Phosphorylase b kinase gamma catalytic chain, liver/testis isoform (Homo sapiens, UniProt P15735); assay type: functional;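 note: PHKG2 measured as one member of a kinome-wide kinase panel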
[33] = molecular target: Serine/threonine-protein kinase pim-3 (Homo sapiens, UniProt Q86V86); assay type: functional;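 note: value obtained as one member of a broad kinase panel profiling effort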

CCNc1nc(N)c(C(=O)c2ccc(Cl)s2)s1
EC50 [1]: > 12 µM (not active)
AC50 [2]: < 0.0218 µM (active)
EC50 [3]: 0.238 µM (active)
EC50 [4]: 0.19 µM (active)
EC50 [5]: 1.21 µM (active)
AC50 [6]: < 0.016 µM (active)
EC50 [7]: 0.233 µM (active)
AC50 [8]: 0.516 µM (active)
EC50 [9]: > 120 µM (not active)

COc1ccc(C2CC(C(F)(F)F)n3nc(C(=O)O)c(Cl)c3N2)cc1OC (stereo not drawn)
IC50 [10]: > 89.2 µM (inactive)
EC50 [11]: > 54.7 µM (inactive)
EC50 [12]: > 54.7 µM (inactive)
EC50 [13]: 50.1 µM (inactive)

CCCCSc1nnc(-c2cc3c(C(F)(F)F)nn(C)c3s2)n1C
AC50 [14]: inconclusive
AC50 [15]: 20 µM (inconclusive)
IC50 [16]: 51.6 µM (inactive)
IC50 [17]: > 99 µM (inactive)

CC1CCCCC1N(C(=O)c1cc(C2CC2)on1)C1CCCCCC1 (stereo not drawn)
EC50 [18]: > 50 µM (inactive)
EC50 [19]: > 50 µM (inactive)

Cc1cc(=O)[nH]nc1-c1ccc(NC(=O)Nc2cccc(Cl)c2)cc1
Ki [20]: 1.58 µM (active)
Ki [21]: > 6.31 µM (inactive)
Ki [22]: 3.16 µM (active)
Ki [23]: > 6.31 µM (inactive)
Ki [24]: 2 µM (active)
Ki [25]: 0.631 µM (active)
Ki [26]: > 6.31 µM (inactive)
Ki [27]: 2.51 µM (active)
Ki [28]: 0.631 µM (active)
Ki [29]: > 15.8 µM (inactive)
Ki [30]: > 7.94 µM (inactive)
Ki [31]: > 6.31 µM (inactive)

CCOC(=O)C1=c2sc(=Cc3cccs3)c(=O)n2C(N)=C(C#N)C1c1cccs1 (stereo not drawn)
Ki [32]: 5.01 µM (active)
Ki [33]: 6.31 µM (active)
